Experimental data: patent US8207176B2 (Glaxo Group Limited, priority 2005, dated 2012)
Entries after “also recorded” stand apart in the source; their conditions may differ.

Each compound was assayed on influx of neutrophils to the lung in LPS-challenged rats (assay: Rat LPS neutrophilia model). Conditions: intratracheal, LPS aerosol 100 ug/ml 15 min, lavage 4 hours later, in at least one of the range of conditions tested, significant p<0.05, nonsignificant p>0.05.
Assay type: in vivo
Experimental: The effect of compounds on the influx of neutrophils to the lung in LPS-challenged rats is evaluated as follows. The test compound is suspended in one of the following solutions: 0.5% tween 80/PBS, 0.5% tween 80/saline, 10% EtOH/saline (with pH adjusted to 2.0, or 8.0 with HCl, or unadjusted), Saline @ pH 2.0, 6.5 or 8.0, 0.5% Tragacanth, 1% DMSO/20% Encapsin/Saline, or acidified 5% Tragacanth. The suspension process may be aided by the use of a glass homogenizer. For intratracheal administration, the animals are anesthetized with inhaled isoflurane and placed in a supine position, the trachea is intubated with a steel gavage needle (1.5 inch, 22 gauge, small ball) or a Penn-Century Microsprayer Aerosolizer (model IA-IB) and 200 ul of dosing solution is delivered. The animals are visually monitored during the recovery process, which typically occurs within two minutes. It is noted that the test compounds may be alternatively administered via the microsprayer in a dry powder blend with a suitable excipient, such as lactose.
Rats treated with compound or vehicle (15 min-24 hours pretreatment) are exposed to an LPS aerosol (100 ug/ml) for 15 min. Four hours later the rats are euthanized with pentobarbital (100 mg/kg, i.p.) and the airways are lavaged with 5 washes of 5 ml of phosphate buffered saline. The harvested cells are stained (Diffquick) and counted to determine total and differential cell data. […] Inhibition of neutrophil levels relative to no compound controls is calculated based on the differential counts.
The data is obtained as % inhibition using a particular concentration and pretreat time.

SMILES	inhibition of neutrophilia (neutrophil levels in lung lavage relative to no compound controls)
CCN(CC)CCCNc1nc(-c2cc(C(=O)NCC3CCCC3)ccc2C)c2ccc(=O)n(-c3c(F)cccc3F)c2n1 [Example 132, N-(cyclopentylmethyl)-3-[2-{[3-(diethylamino)propyl]amino}-8-(2,6-difluorophenyl)-7-oxo-7,8-dihydropyrido[2,3-d]pyrimidin-4-yl]-4-methylbenzamidetrifluoroacetate]	statistically nonsignificant inhibition
CCCNC(=O)c1ccc(C)c(-c2nc(N3CCC(N4CCC(C)CC4)CC3)nc3c2ccc(=O)n3-c2c(F)cccc2F)c1 [Example 166, 3-[8-(2,6-difluorophenyl)-2-(4-methyl-1,4′-bipiperidin-1′-yl)-7-oxo-7,8-dihydropyrido[2,3-d]pyrimidin-4-yl]-4-methyl-N-propylbenzamide]	statistically significant inhibition
Cc1ccc(C(=O)Nc2ccc(F)cc2)cc1-c1nc(NCCN(C)C(=O)OC(C)(C)C)nc2c1ccc(=O)n2-c1c(F)cccc1F [Example 95, 1,1-dimethylethyl (2-{[8-(2,6-difluorophenyl)-4-(5-{[(4-fluorophenyl)amino]carbonyl}-2-methylphenyl)-7-oxo-7,8-dihydropyrido[2,3-d]pyrimidin-2-yl]amino}ethyl)methylcarbamate]	statistically nonsignificant inhibition
CCN(CC)CCCNc1nc(-c2cc(C(=O)NC)ccc2C)c2ccc(=O)n(-c3c(F)cccc3F)c2n1 [Example 119, 3-[2-{[3-(diethylamino)propyl]amino}-8-(2,6-difluorophenyl)-7-oxo-7,8-dihydropyrido[2,3-d]pyrimidin-4-yl]-N,4-dimethylbenzamide]	statistically significant inhibition
Cc1ccc(C(=O)NCC(F)(F)F)cc1-c1nc(N2CCC(N3CCC(C)CC3)CC2)nc2c1ccc(=O)n2-c1c(F)cccc1F [Example 172, 3-[8-(2,6-difluorophenyl)-2-(4-methyl-1,4′-bipiperidin-1′-yl)-7-oxo-7,8-dihydropyrido[2,3-d]pyrimidin-4-yl]-4-methyl-N-(2,2,2-trifluoroethyl)benzamide]	inactive
Cc1ccc(C(=O)Nc2nccs2)cc1-c1nc(N2CCC(N)CC2)nc2c1ccc(=O)n2-c1c(F)cccc1F [Example 73, 3-[2-(4-amino-1-piperidinyl)-8-(2,6-difluorophenyl)-7-oxo-7,8-dihydropyrido[2,3-d]pyrimidin-4-yl]-4-methyl-N-1,3-thiazol-2-ylbenzamide]	statistically significant inhibition
Cc1ccc(C(=O)NC2CCCC2)cc1-c1nc(N2CCC(N3CCC(C)CC3)CC2)nc2c1ccc(=O)n2-c1c(F)cccc1F [Example 169, N-cyclopentyl-3-[8-(2,6-difluorophenyl)-2-(4-methyl-1,4′-bipiperidin-1′-yl)-7-oxo-7,8-dihydropyrido[2,3-d]pyrimidin-4-yl]-4-methylbenzamide]	statistically nonsignificant inhibition
CNCCNc1nc(-c2cc(C(=O)NCc3ccccc3)ccc2C)c2ccc(=O)n(-c3c(F)cccc3F)c2n1 [Example 59, 3-(8-(2,6-difluorophenyl)-2-{[2-(methylamino)ethyl]amino}-7-oxo-7,8-dihydropyrido[2,3-d]pyrimidin-4-yl)-4-methyl-N-(phenylmethyl)benzamide]	statistically significant inhibition
Cc1ccc(C(=O)NC2CC2)cc1-c1nc(N2CCC(N)CC2)nc2c1ccc(=O)n2-c1c(F)cccc1F [Example 22, 3-[2-(4-amino-1-piperidinyl)-8-(2,6-difluorophenyl)-7-oxo-7,8-dihydropyrido[2,3-d]pyrimidin-4-yl]-N-cyclopropyl-4-methylbenzamide]	statistically significant inhibition
Cc1ccc(C(=O)Nc2nccs2)cc1-c1nc(NCCNC(C)C)nc2c1ccc(=O)n2-c1c(F)cccc1F [Example 103, 3-[8-(2,6-difluorophenyl)-2-({2-[(1-methylethyl)amino]ethyl}amino)-7-oxo-7,8-dihydropyrido[2,3-d]pyrimidin-4-yl]-4-methyl-N-1,3-thiazol-2-ylbenzamide]	statistically significant inhibition
CCN(CC)CCCNc1nc(-c2cc(C(=O)NC3CC3)cc(F)c2C)c2ccc(=O)n(-c3c(F)cccc3F)c2n1 [Example 185, N-cyclopropyl-3-[2-{[3-(diethylamino)propyl]amino}-8-(2,6-difluorophenyl)-7-oxo-7,8-dihydropyrido[2,3-d]-pyrimidin-4-yl]-5-fluoro-4-methylbenzamide]	statistically nonsignificant inhibition
Cc1ccc(C(=O)Nc2nccs2)cc1-c1nc(NCCCNC(C)(C)C)nc2c1ccc(=O)n2-c1c(F)cccc1F [Example 102, 3-[8-(2,6-difluorophenyl)-2-({3-[(1,1-dimethylethyl)amino]propyl}amino)-7-oxo-7,8-dihydropyrido[2,3-d]pyrimidin-4-yl]-4-methyl-N-1,3-thiazol-2-ylbenzamide]	statistically nonsignificant inhibition
CCCNC(=O)c1cc(F)c(C)c(-c2nc(NCCCN(CC)CC)nc3c2ccc(=O)n3-c2c(F)cccc2F)c1 [Example 181, 3-[2-{[3-(diethylamino)propyl]amino}-8-(2,6-difluorophenyl)-7-oxo-7,8-dihydropyrido[2,3-d]-pyrimidin-4-yl]-5-fluoro-4-methyl-N-propylbenzamide]	statistically nonsignificant inhibition
CCN(CC)CCCNc1nc(-c2cc(C(=O)NCCOC)ccc2C)c2ccc(=O)n(-c3c(F)cccc3F)c2n1 [Example 134, 3-[2-{[3-(diethylamino)propyl]amino-}8(2,6-difluorophenyl)-7-oxo-7,8-dihydropyrido[2,3-d]pyrimidin-4-yl]-4-methyl-N-[2-(methyloxy)ethyl]benzamidetrifluoroacetate]	statistically nonsignificant inhibition
Cc1ccc(C(=O)NC2CCCC2)cc1-c1nc(N2CCC(N)CC2)nc2c1ccc(=O)n2-c1c(F)cccc1F [Example 70, 3-[2-(4-amino-1-piperidinyl)-8-(2,6-difluorophenyl)-7-oxo-7,8-dihydropyrido[2,3-d]pyrimidin-4-yl]-N-cyclopentyl-4-methylbenzamide]	statistically nonsignificant inhibition
CCN(CC)CCCNc1nc(-c2cc(C(=O)N(C)C)ccc2C)c2ccc(=O)n(-c3c(F)cccc3F)c2n1 [Example 120, 3-[2-{[3-(diethylamino)-propyl]amino}-8-(2,6-difluorophenyl)-7-oxo-7,8-dihydropyrido[2,3-d]-pyrimidin-4-yl]-N,N,4-trimethylbenzamide]	statistically nonsignificant inhibition; also recorded: inactive
